The source made the active and inactive calls. No rule for the calls is given here.
biological target: Glucose-6-phosphate 1-dehydrogenase (Leuconostoc mesenteroides) (UniProt P11411); assay: Leuconostoc G6PDH inhibition potency, SAR follow-up, counter-screen for TbHK1 inhibitor project, biochemical, analogue series, IC50 (AID 2579); conditions: Purified L. mesenteroides G6PDH enzyme assay, counterscreen
Sequence (P11411 whole entry, looked up): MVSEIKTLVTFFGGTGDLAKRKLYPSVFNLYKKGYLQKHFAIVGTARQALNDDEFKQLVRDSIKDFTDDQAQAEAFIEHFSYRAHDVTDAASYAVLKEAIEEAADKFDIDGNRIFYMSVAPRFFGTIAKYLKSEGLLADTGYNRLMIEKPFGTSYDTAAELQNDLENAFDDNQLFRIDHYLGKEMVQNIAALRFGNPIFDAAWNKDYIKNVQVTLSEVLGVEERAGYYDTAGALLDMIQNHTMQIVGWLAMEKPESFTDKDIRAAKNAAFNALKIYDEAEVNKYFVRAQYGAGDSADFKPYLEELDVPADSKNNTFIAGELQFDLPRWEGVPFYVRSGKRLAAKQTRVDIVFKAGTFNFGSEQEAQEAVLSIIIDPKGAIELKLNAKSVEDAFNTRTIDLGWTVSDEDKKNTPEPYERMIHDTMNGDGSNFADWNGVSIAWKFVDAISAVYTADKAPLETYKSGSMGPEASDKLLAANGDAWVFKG

Compound	IC50
CC(C)(C)c1ccc(C(=O)Nc2cc(Cl)c(F)cc2C(=O)O)cc1	> 25 µM (inactive)
COc1ccc(C(=O)Nc2cc(Cl)c(Br)cc2C(=O)O)cc1	> 25 µM (inactive)
Cc1cc(C(C#N)c2ccc(Cl)cc2)c(Cl)cc1NC(=O)c1cc(I)cc(I)c1O (centres undefined)	> 25 µM (inactive)
COc1ccc(C(=O)Nc2cc(Cl)c(C)cc2C(=O)O)cc1	> 25 µM (inactive)
CC(C)(C)c1ccc(C(=O)Nc2cc(Cl)ccc2-c2nn[nH]n2)cc1	> 25 µM (inactive)
COc1ccc(N2C(=O)c3ccc(Cl)cc3C2=O)cc1	> 25 µM (inactive)
CC(C)(C)c1ccc(C(=O)Nc2cc(Cl)c(Br)cc2C(=O)O)cc1	> 25 µM (inactive)
O=c1c(O)c(-c2ccc(O)c(O)c2)oc2cc(O)cc(O)c12	> 25 µM (inactive)
CC(C)(C)c1ccc(C(=O)Nc2cc(Cl)c(Cl)cc2C(=O)O)cc1	> 25 µM (inactive)
COc1ccc(C(=O)Nc2cc(Cl)ccc2O)cc1	> 25 µM (inactive)
C=C(C)c1ccc(C(=O)Nc2cc(Cl)ccc2C(=O)O)cc1	> 25 µM (inactive)
CC(C)(C)c1ccc(C(=O)Nc2cc(Br)ccc2C(=O)O)cc1	> 25 µM (inactive)
CC(C)(C)c1ccc(C(=O)Nc2cc(Cl)ccc2O)cc1	> 25 µM (inactive)
CC1(c2ccc(C(=O)Nc3cc(Cl)ccc3C(=O)O)cc2)CC1	> 25 µM (inactive)

From PubChem BioAssay AID2579 (University of Pittsburgh Molecular Library Screening Center, 2010)
